In this test the target is PD-L1 His protein / PD-1 Fc protein (Homo sapiens, UniProt Q9NZQ7). The test can be described thus: HTRF Assay (PD-1/PD-L1 interaction). It counts as binding. Conditions: PD-L1 His 6 nM, PD-1 Fc 6 nM. In a few lines: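 Compounds tested from 20 μM down to 0.001 μM (3-fold) against 6 nM PD-L1 His and 6 nM PD-1 Fc, 15 min room temperature incubation. Detection after 1 h at room temperature with Tb cryptate anti-6HIS and XL665 anti-human IgG reagents (mixture at 0.35 nM and 6.7 nM), HTRF signal.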
Chain of PD-L1 His protein / PD-1 Fc protein (Q9NZQ7 19-238 limits assumed): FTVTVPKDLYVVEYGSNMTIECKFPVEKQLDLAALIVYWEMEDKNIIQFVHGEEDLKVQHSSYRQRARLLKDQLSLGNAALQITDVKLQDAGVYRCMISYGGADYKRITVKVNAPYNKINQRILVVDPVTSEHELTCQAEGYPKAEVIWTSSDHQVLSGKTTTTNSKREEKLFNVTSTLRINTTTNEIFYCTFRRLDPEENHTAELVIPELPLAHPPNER
With `COC(=O)CNCc1ccc(-c2cccc(-c3cccc(-c4ccn5c(=O)c(CNC[C@@H]6CCC(=O)N6)cnc5c4)c3Cl)c2Cl)nc1OC` [Example 124, Methyl (S)-((6-(2,2′-dichloro-3′-(4-oxo-3-((((5-oxopyrrolidin-2-yl)methyl)amino)methyl)-4H-pyrido[1,2-a]pyrimidin-8-yl)-[1,1′-biphenyl]-3-yl)-2-methoxypyridin-3-yl)methyl)glycinate], the IC50 was 3.8 nM.

`COc1cc(-c2cccc(-c3cccc(-c4ccc(CNC[C@@H]5CCC(=O)N5)c(OC)n4)c3Cl)c2Cl)cc2c1CN(CC(O)C(C)C)CC2` (stereo partly drawn) [Example 488, (5S)-5-((((6-(2,2′-Dichloro-3′-(2-(2-hydroxy-3-methylbutyl)-8-methoxy-1,2,3,4-tetrahydroisoquinolin-6-yl)-[1,1′-biphenyl]-3-yl)-2-methoxypyridin-3-yl)methyl)amino)methyl)pyrrolidin-2-one] had an IC50 of 0.2 nM.

Consider `COc1nc(-c2cccc(-c3cccc(-c4cc5c(=O)n(C)c(CN6CC(C)(C#N)C6)nn5c4)c3Cl)c2Cl)ccc1CNC[C@@H]1CCC(=O)N1` [Example 470, 1-[[6-[2-chloro-3-[2-chloro-3-[6-methoxy-5-[[[(2S)-5-oxopyrrolidin-2-yl]methylamino]methyl]-2-pyridyl]phenyl]phenyl]-3-methyl-4-oxo-pyrrolo[2,1-f][1,2,4]triazin-2-yl]methyl]-3-methyl-azetidine-3-carbonitrile], for which it took 37 nM to reach half-maximal inhibition (IC50).

Turning to `Cc1c(COc2cc(OCc3cncc(C#N)c3)c(CNC[C@@H]3CCC(=O)N3)cc2Cl)cccc1-c1cccc(-c2ccn3c(=O)c(CNC[C@@H]4CCC(=O)N4)ccc3c2)c1C` [Example 24, 5-((4-Chloro-5-((2,2′-dimethyl-3′-(4-oxo-3-(((((S)-5-oxopyrrolidin-2-yl)methyl)amino)methyl)-4H-quinolizin-8-yl)-[1,1′-biphenyl]-3-yl)methoxy)-2-(((((S)-5-oxopyrrolidin-2-yl)methyl)amino)methyl)phenoxy)methyl)nicotinonitrile], the IC50 was determined as 0.5 nM.

`COc1nc(-c2cccc(-c3cccc(-c4ccn5c(=O)c(CNCC6(O)COC6)cnc5c4)c3Cl)c2Cl)ccc1CNC[C@@H]1CCC(=O)N1` [Example 243, (S)-8-(2,2′-dichloro-3′-(6-methoxy-5-((((5-oxopyrrolidin-2-yl)-methyl)-amino)-methyl)pyridin-2-yl)-[1,1′-biphenyl]-3-yl)-3-((((3-hydroxyoxetan-3-yl)methyl)-amino)-methyl)-4H-pyrido[1,2-a]-pyrimidin-4-one] came in with an IC50 of 0.3 nM.

Molecule `COc1nc(-c2cc(F)cc(-c3cccc(-c4ccn5c(=O)c(CNC[C@@H]6CCC(=O)N6)cnc5c4)c3C)c2Cl)ccc1CNC[C@@H]1CCC(=O)N1` [Example 97, 8-(2′-Chloro-5′-fluoro-3′-(6-methoxy-5-(((((S)-5-oxopyrrolidin-2-yl)methyl)amino)methyl)pyridin-2-yl)-2-methyl-[1,1′-biphenyl]-3-yl)-3-(((((S)-5-oxopyrrolidin-2-yl)methyl)amino)methyl)-4H-pyrido[1,2-a]pyrimidin-4-one] returned an IC50 of 5.1 nM.

`CNC(=O)CN(C)Cc1cnc2cc(-c3cccc(-c4cccc(-c5ccc(CNC[C@@H]6CCC(=O)N6)c(OC)n5)c4Cl)c3Cl)ccn2c1=O` [Example 200, (S)-2-(((8-(2,2′-Dichloro-3′-(6-methoxy-5-((((5-oxopyrrolidin-2-yl)methyl)amino)methyl)pyridin-2-yl)-[1,1′-biphenyl]-3-yl)-4-oxo-4H-pyrido[1,2-a]pyrimidin-3-yl)methyl)(methyl)amino)-N-methylacetamide] returned an IC50 of 0.1 nM.

As to `COc1nc(-c2cccc(-c3cccc(-c4ccn5c(=O)c(CNC[C@@H]6CCC(=O)N6)cnc5c4)c3Cl)c2Cl)ccc1C1=NCCC(C(=O)O)N1` (mixture of isomers) [Example 180, 2-(6-(2,2′-Dichloro-3′-(4-oxo-3-(((((S)-5-oxopyrrolidin-2-yl)methyl)amino)methyl)-4H-pyrido[1,2-a]pyrimidin-8-yl)-[1,1′-biphenyl]-3-yl)-2-methoxypyridin-3-yl)-3,4,5,6-tetrahydropyrimidine-4-carboxylic acid], the IC50 is 0.9 nM.

In turn, `COc1nc(-c2cccc(-c3cccc(-c4ccc5c(c4)N(C)CCNC5)c3Cl)c2Cl)ccc1CNC[C@@H]1CCC(=O)N1` [Example 364, (S)-5-((((6-(2,2′-Dichloro-3′-(1-methyl-2,3,4,5-tetrahydro-1H-benzo[e][1,4]diazepin-8-yl)-[1,1′-biphenyl]-3-yl)-2-methoxypyridin-3-yl)methyl)amino)methyl)pyrrolidin-2-one] showed an IC50 of 150 nM.

Regarding `COc1nc(-c2cccc(-c3cccc(-c4ccn5c(=O)c(CNCC(F)(F)CO)cnc5c4)c3Cl)c2Cl)ccc1CNC[C@@H]1CCC(=O)N1` [Example 300, (S)-8-(2,2′-Dichloro-3′-(6-methoxy-5-((((5-oxopyrrolidin-2-yl)methyl)amino)methyl)pyridin-2-yl)-[1,1′-biphenyl]-3-yl)-3-(((2,2-difluoro-3-hydroxypropyl)amino)methyl)-4H-pyrido[1,2-a]pyrimidin-4-one], the IC50 turned out to be 130 nM.

Regarding `Cc1c(-c2ccn3c(=O)c(CNCCO)cnc3c2)cccc1-c1cccc(COc2cc(OCc3cncc(C#N)c3)c(CNCCO)cc2Cl)c1Cl` [Example 14, 5-((4-Chloro-5-((2-chloro-3′-(3-(((2-hydroxyethyl)amino)methyl)-4-oxo-4H-pyrido[1,2-a]pyrimidin-8-yl)-2′-methyl-[1,1′-biphenyl]-3-yl)methoxy)-2-(((2-hydroxyethyl)amino)methyl)phenoxy)methyl)nicotinonitrile], half-maximal inhibition (IC50) was put at 0.4 nM.

Turning to `COc1nc(-c2cccc(-c3cccc(-c4ccn5c(=O)c(CN6CC[C@H](C(=O)O)C6)cnc5c4)c3Cl)c2Cl)cnc1CN1CC(CO)C1` [Example 92, (S)-1-((8-(2,2′-Dichloro-3′-(5-((3-(hydroxymethyl)azetidin-1-yl)methyl)-6-methoxypyrazin-2-yl)-[1,1′-biphenyl]-3-yl)-4-oxo-4H-pyrido[1,2-a]pyrimidin-3-yl)methyl)pyrrolidine-3-carboxylic acid], inhibition was half-maximal at 0.3 nM (IC50).

Regarding `COc1nc(-c2cccc(-c3cccc(-c4ccn5c(=O)c(CNCC6(C)COC6)cnc5c4)c3Cl)c2Cl)ccc1CNC[C@@H]1CCC(=O)N1` [Example 246, (S)-8-(2,2′-dichloro-3′-(6-methoxy-5-((((5-oxopyrrolidin-2-yl)-methyl)amino)-methyl)pyridin-2-yl)-[1,1′-biphenyl]-3-yl)-3-((((3-methyloxetan-3-yl)-methyl)-amino)-methyl)-4H-pyrido[1,2-a]pyrimidin-4-one], half-maximal inhibition (IC50) required 6.7 nM.

`CNCCN(C)Cc1cnc2cc(-c3cccc(-c4cccc(-c5ccc(CNC[C@@H]6CCC(=O)N6)c(OC)n5)c4Cl)c3Cl)ccn2c1=O` [Example 278, (S)-8-(2,2′-dichloro-3′-(6-methoxy-5-((((5-oxopyrrolidin-2-yl)methyl)amino)methyl)pyridin-2-yl)-[1,1′-biphenyl]-3-yl)-3-((methyl(2-(methylamino)ethyl)amino)methyl)-4H-pyrido[1,2-a]pyrimidin-4-one] gave an IC50 of 0.1 nM.

`COc1nc(-c2cccc(-c3cccc(-c4ccn5c(=O)c(CNCC6CC(F)(F)C(=O)N6)cnc5c4)c3Cl)c2Cl)ccc1CNC[C@@H]1CCC(=O)N1` (mixture of isomers) [Example 253, 8-[2-Chloro-3-[2-chloro-3-[6-methoxy-5-[[[(2S)-5-oxopyrrolidin-2-yl]methylamino]methyl]-2-pyridyl]phenyl]phenyl]-3-[[(4,4-difluoro-5-oxo-pyrrolidin-2-yl)methylamino]methyl]pyrido[1,2-a]pyrimidin-4-one] registered an IC50 of 5.7 nM.

Molecule `Cc1c(-c2ccn3c(=O)c(CNC[C@@H]4CCC(=O)N4)cnc3c2)cccc1-c1cccc(-c2ccn3c(=O)c(CNC[C@@H]4CCC(=O)N4)cnc3c2)c1C` [Example 37, 8,8′-(2,2′-Dimethyl-[1,1′-biphenyl]-3,3′-diyl)bis(3-(((((S)-5-oxopyrrolidin-2-yl)methyl)amino)methyl)-4H-pyrido[1,2-a]pyrimidin-4-one)] gave an IC50 of 140 nM.

The molecule `COC(=O)C(C)(C)CNCc1cnc2cc(-c3cccc(-c4cccc(-c5ccc(CNC[C@@H]6CCC(=O)N6)c(OC)n5)c4Cl)c3Cl)ccn2c1=O` [Example 384, methyl (S)-3-(((8-(2,2′-dichloro-3′-(6-methoxy-5-((((5-oxopyrrolidin-2-yl)-methyl)-amino)-methyl)-pyridin-2-yl)-[1,1′-biphenyl]-3-yl)-4-oxo-4H-pyrido[1,2-a]pyrimidin-3-yl)-methyl)-amino)-2,2-dimethylpropanoate] returned an IC50 of 2.7 nM.

In turn, `COc1nc(-c2cccc(-c3cccc(-c4cc5c(=O)n(C)c(CNC6CC7(COC7)C6)nn5c4)c3Cl)c2Cl)ccc1CNC[C@@H]1CCC(=O)N1` [Example 446, 6-[2-Chloro-3-[2-chloro-3-[6-methoxy-5-[[[(2S)-5-oxopyrrolidin-2-yl]methylamino]methyl]-2-pyridyl]phenyl]phenyl]-3-methyl-2-[(2-oxaspiro[3.3]heptan-6-ylamino)methyl] pyrrolo[2,1-f][1,2,4]triazin-4-one] gave an IC50 of 160 nM.

In the case of `COc1nc(CC2CCc3c(-c4cccc(-c5ccn6c(=O)c(CNC[C@@H]7CCC(=O)N7)cnc6c5)c4Cl)cccc32)c(Cl)cc1CNC[C@@H]1CCC(=O)N1` (mixture of isomers) [Example 213, 8-(2-chloro-3-(1-((3-chloro-6-methoxy-5-(((((S)-5-oxopyrrolidin-2-yl)methyl)amino)methyl)pyridin-2-yl)methyl)-2,3-dihydro-1H-inden-4-yl)phenyl)-3-(((((S)-5-oxopyrrolidin-2-yl)methyl)amino)methyl)-4H-pyrido[1,2-a]pyrimidin-4-one], half-maximal inhibition (IC50) required 3700 nM.

As a reminder, the IC50 is the concentration at which inhibition is half-maximal. Higher therefore signals weaker potency.

Source of the values: patent US20230143612A1 (Arbutus Biopharma Corporation, priority 2020, published 2023).
